Source: patent publication US10085963B2, “Process and compositions for achieving mammalian energy balance” (SAMI LABS LIMITED, priority 2015, dated 2018)

Tests used:
[1] = administration in humans; cited from earlier work
[2] = tested on: mammalian pre-adipocytes / adipocytes; experiment: Adipogenesis inhibition, Oil Red O staining; type: cell-based
Description: […] C.) of 5% CO2 and 95% air; • f) Fixing, the cells of step e by adding 100 μl of 10% formalin and staining using the Oil Red O technique; • g) Reading the optical density of cells of step f at 492 nm in a microplate reader and expressing the results as inhibitory concentration (IC50) values using the graph pad prism software; • h) Calculating the percentage inhibition of adipogenesis in the cells of steps f and g using the formula, C-T/T×100, wherein C is the absorbance of Oil Red O in differentiating/undifferentiated cells and T is the absorbance of Oil Red O in sample treated differentiating/undifferentiated cells. • i) Adding 200 μl of freshly prepared Adipogenesis induction medium to the wells of step a. • j) Adding 200 μl of freshly prepared Adipogenesis progression medium comprising graded concentrations of forskolin (50 μg/ml and 100 μg/ml respectively) to the wells of step i after 72 hours of incubation with the Adipogenesis induction medium; • k) Incubating the cells treated with forskolin (step j), adipogenesis induction medium (step i) and adipogenesis progression medium (step j) for 48 hours in a humidified atmosphere (37 deg. C.) of 5% (CO2 and 95% air; • l) Fixing the cells of step 1 by adding 100 μl of 10% formal in and staining using the Oil Red O technique; • m) Reading the optical density of cells of step m at 492 nm in as microplate reader and expressing the results as inhibitory concentration (IC50) values using the graph pad prism software; • n) Calculating the percentage inhibition of adipogenesis in the cells of steps m and n using the formula, C-T/T×100, wherein C is the absorbance of Oil Red O in differentiating/undifferentiated cells and T is the absorbance of Oil Red O in sample treated differentiating/undifferentiated cells; and • o) Comparing percentage inhibition of adipogenesis in the cells of steps h and o.

C=C[C@@]1(C)CC(=O)[C@]2(O)[C@@]3(C)[C@@H](O)CCC(C)(C)[C@@H]3[C@H](O)[C@H](OC(C)=O)[C@@]2(C)O1 [forskolin]
clinically significant side effects [1]: does not cause clinically significant side effects | inhibition at 6.25 µg/mL ([2]; Adipocyte, forskolin 6.25 μg/ml, read-out: % inhibition of adipogenesis when forskolin is added after differentiation of pre-adipocytes to the adipocyte stage): 1.2% | inhibition at 12.5 µg/mL ([2]; Adipocyte, forskolin 12.50 μg/ml, read-out: % inhibition of adipogenesis when forskolin is added after differentiation of pre-adipocytes to the adipocyte stage): 6.8% | inhibition at 25 µg/mL ([2]; Adipocyte, forskolin 25 μg/ml, read-out: % inhibition of adipogenesis when forskolin is added after differentiation of pre-adipocytes to the adipocyte stage): 10.6% | inhibition at 50 µg/mL ([2]; Adipocyte, forskolin 50 μg/ml, read-out: % inhibition of adipogenesis when forskolin is added after differentiation of pre-adipocytes to the adipocyte stage): 12.9% | inhibition at 100 µg/mL ([2]; Adipocyte, forskolin 100 μg/ml, read-out: % inhibition of adipogenesis when forskolin is added after differentiation of pre-adipocytes to the adipocyte stage): 18.5% | % inhibition of adipogenesis when forskolin is added at the pre-adipocyte stage (before differentiation into the adipocyte stage) ([2]; forskolin 6.25 μg/ml): 10.2% | % inhibition of adipogenesis when forskolin is added at the pre-adipocyte stage (before differentiation into the adipocyte stage) ([2]; forskolin 12.50 μg/ml): 12.8% | % inhibition of adipogenesis when forskolin is added at the pre-adipocyte stage (before differentiation into the adipocyte stage) ([2]; forskolin 25 μg/ml): 19.7% | % inhibition of adipogenesis when forskolin is added at the pre-adipocyte stage (before differentiation into the adipocyte stage) ([2]; forskolin 50 μg/ml): 35.5% | % inhibition of adipogenesis when forskolin is added at the pre-adipocyte stage (before differentiation into the adipocyte stage) ([2]; forskolin 100 μg/ml): 41.8%
